Measured values reported in patent US20100324312A1, “NOVEL METHYLATED CATECHIN AND COMPOSITION CONTAINING THE SAME” (INCORPORATED ADMINSTRATIVE AGENCY NATIONAL AGRICULTURE AND …, priority 2007, published 2010).

Legend:
[1] = tested on: BMMC (mouse bone marrow-derived mast cells); experiment: Histamine release inhibitory activity in mouse mast cells (IgE-sensitized BMMC, DNP-HSA induced degranulation); format: cell-based; conditions: 12.5 and 25 μg/mL test sample, 10 min incubation, DNP-HSA antigen 20 min; histamine in supernatant relative to control (distilled water); FIG. 2; compared with epigallocatechin-3-O-gallate and epigallocatechin-3-O-(3-O-methyl)gallate
Experimental: FIG. 2 is a graph showing the histamine release inhibitory activity in mouse mast cells. In FIG. 2, numeral 1 denotes 12.5 μg/mL of epigallocatechin-3-O-gallate; numeral 2 denotes 25 μg/mL of epigallocatechin-3-O-gallate; numeral 3 denotes 12.5 μg/mL of epigallocatechin-3-O-(3-O-methyl)gallate: numeral 4 denotes 25 μg/mL of epigallocatechin-3-O-(3-O-methyl)gallate; numeral 5 denotes 12.5 μg/mL of epi(3-O-methyl)gallocatechin-3-O-(3,5-O-dimethyl)gallate; and numeral 6 denotes 25 μg/mL of epi(3-O-methyl)gallocatechin-3-O-(3,5-O-dimethyl)gallate.
The effect of epi(3-O-methyl)gallocatechin-3-O-(3,5-O-dimethyl)gallate was determined based on the histamine release inhibitory activity in mouse mast cells. Epigallocatechin-3-O-gallate and epigallocatechin-3-O-(3-O-methyl)gallate known to have stronger antiallergic activity than epigallocatechin-3-O-gallate were used as comparison substances. […] Then, DNP-HSA (antigen) was added thereto to induce degranulation (20 minutes), and the amount of histamine in the supernatant was measured by liquid chromatography. The antiallergic activity was evaluated based on the relative value with respect to the value for the control (distilled water). […]

[2] = compared with EGCG; cited from earlier work

Row | Molecule | histamine release inhibitory activity [1] | antiallergic activity [2]
1 | COc1cc([C@H]2Oc3cc(O)cc(O)c3C[C@H]2OC(=O)c2cc(OC)c(O)c(OC)c2)cc(O)c1O [epi(3-O-methyl)gallocatechin-3-O-(3,5-O-dimethyl)gallate] | stronger than those of the comparison substances | 
2 | COc1c(O)cc(C(=O)O[C@@H]2Cc3c(O)cc(O)cc3O[C@@H]2c2cc(O)c(O)c(O)c2)cc1O [epigallocatechin-3-O-(4-O-methyl)gallate] |  | stronger antiallergic activity than EGCG
3 | epigallocatechin-3-O-(3-O-methyl)gallate |  | stronger antiallergic activity than EGCG
